# Measured values published in US20220184222A1, “BICYCLE TOXIN CONJUGATES AND USES THEREOF” (BicycleTx Limited, priority 2019, published 2022).
# Starred links: 1 amine or outer side, 2 acyl side, 3 side chain; linkers in the order of their positions; H or OH if unused. Non-standard residues stand in square brackets, D forms with d. Residues, ends and D or L forms follow the SMILES beside them. *: point of attachment. Dolaproine = CO[C@@H]([C@@H]1CCCN1)[C@@H](C)C(=O)O; Dil = CC[C@H](C)[C@H](NC)[C@@H](CC(=O)O)OC; PABC = O=C(OCc1ccc(N[*:1])cc1)[*:2]; X1 = O=C(CCCC(=O)*)ON1C(=O)CCC1=O; X2 = C[C@@H](N*)[C@@H](O)c1ccccc1; Cit = NC(=O)NCCC[C@H](N)C(=O)O; NMeV = CN[C@H](C(=O)O)C(C)C
# System: CTG-1502
# Experiment: Champions TumorGraft NSCLC PDX efficacy, model CTG-1502
# Format: in vivo, Mus musculus
# Description: Mice were implanted subcutaneously into the left flank with tumor fragments from one of the various models. After tumors grew to an average of 150-300 mm^3, mice were treated by IV administration Q7Dx4 (n=2) with vehicle or 3 mg/kg of BT5528. Effects on tumor growth were evaluated by measuring percent tumor growth inhibition (% TGI), and the number of complete responders (CR), partial responders (PR), and tumor-free survivors (TFS). Tolerability was assessed by body weight loss, lethality, and clinical signs of adverse treatment-related side effects. Tumor volumes and body weights were measured twice a week.
# Dosing solutions of BT5528 […] were pre-formulated. These dosing solutions were stored at −80° C. in the dark. On each day of dosing, a frozen aliquot of each test agent was thawed, stored at 2-8° C. and used for dosing.
# The animals used in this study are described below: • Species: Mus musculus • Strain: Athymic Nude-Foxn1^nu (immune-compromised) • Source: Envigo (Indianapolis, Ind., USA) • Number of animals per group: 2 • Age and sex: At least 6-8 weeks of age at start of dosing, female • Weight: At least 18 grams at start of dosing • Acclimation period: 3 days
# Stock mice were implanted with tumor cells from Champions TumorGraft® models CTG-0160, CTG-0170, CTG-0178, CTG-0192, CTG-0363, CTG-0808, CTG-0838, CTG-0848, CTG-1212, CTG-1502, CTG-1535, CTG-2011, CTG-2393, CTG-2539 or CTG-2540. After the tumors reached 1000-1500 mm^3, they were harvested and the tumor fragments (approximately 5×5×5 mm^3) were implanted SC in the left flank of the female study mice. Each animal was implanted with a specific passage lot and documented. Tumor growth was monitored twice a week using digital calipers and the tumor volume (TV) was calculated using the formula (0.52×[length×width^2]). When the TV reached an average volume of 150-300 mm^3, animals were matched by tumor size and assigned into Vehicle Control and treatment groups (n=2/group) and dosing was initiated on Day 0. After the initiation of dosing on Day 0, animals were weighed twice per week using a digital scale and TV was measured twice per week and also on the final day of study. The study was completed when the mean tumor volume of Vehicle Control reached 1500 mm^3 or up to Day 60, whichever occurred first.
# Beginning on Day 0, animals were observed daily and weighed twice weekly using a digital scale; data including individual and mean gram weights, mean percent weight change versus Day 0 (% vD0) were recorded for each group and % vD0 plotted at study completion. […] Treatment resulting in a mean % vD0>20% and/or >10% mortality was considered above the maximum tolerated dose. Maximum mean % vD0 (weight nadir) for each treatment group was reported at study completion.
# Inhibition of tumor growth was determined by calculating the percent TGI (100%×[1−(final MTV−initial MTV of a treated group)/(final MTV−initial MTV of the control group)]). Treatment started on Day 0.
# Additional endpoints used to evaluate efficacy were: the number of complete responders (CR), partial responders (PR), and tumor-free survivors (TFS). PRs were considered exclusive of CRs, as were TFS.
# Statistical analyses of anti-tumor efficacy were performed using one-way ANOVA followed by Dunnett's multiple comparisons test (GraphPad Prism version 8.2.0). Significant p-values=<0.05.
# Animals were dosed according to the schedule on Table 7-1. The Vehicle Control reached endpoint on Day 17 and the study was terminated on Day 28.
# [1] = CTG-1502, 3 mg/kg IV Q7Dx4, Day 0-28
structure (smiles),measurement,setting,value
CC[C@H](C)[C@@H]([C@@H](CC(=O)N1CCC[C@H]1[C@H](OC)[C@@H](C)C(=O)N[C@H](C)[C@@H](O)c1ccccc1)OC)N(C)C(=O)[C@@H](NC(=O)[C@H](C(C)C)N(C)C(=O)OCc1ccc(NC(=O)[C@H](CCCNC(N)=O)NC(=O)[C@@H](NC(=O)CCCC(=O)ON2C(=O)CCC2=O)C(C)C)cc1)C(C)C [BT5528] (X1-V[Cit][PABC][NMeV]V[Dil][Dolaproine]-X2),MTV (mean tumor volume),"3 mg/kg IV Q7Dx4, Day 17",976±229 mm^3
same,TGI,"3 mg/kg IV Q7Dx4, Day 17",48%
same,# CR (complete responders),[1],0/0/0
same,# PR (partial responders),[1],0/0/0
same,# TFS (tumor-free survivors),[1],0/0/0
same,% TGI,"CTG-1502, 3 mg/kg IV Q7Dx4, Day 17",48%
same,Day 17 Tumor Volume Mean TV ± SEM,"CTG-1502, BT5528 3 mg/kg IV Q7Dx4, Day 17, n=2",976 ± 229 mm^3
